Measured values reported in US20040110637A1, “Method of safening crops using isoxazoline carboxylates” (priority 2001, published 2004).

Legend:
Assay type in all cases: in vivo
[1] = system: HORVS = Hordeum vulgare (barley), variety Boroness; assay: Barley seed treatment with safener, then pre-emergence herbicide H2 (metolachlor); visual crop injury; conditions: for Safener effect in % reduction in crop injury: HORVS
Protocol: (§1) The number of crop seeds that would be needed for each safener rate was calculated. Based on the weight of 100 seeds, sufficient seeds were weighed into screw top glass bottles approximately twice the volume of the seeds.
(§2) The prospective safeners were formulated as wettable powders or water dispersible granules. These formulations were weighed out so that the required rates (g a.i./kg seed) would be obtained. The samples were added to the seeds in the bottles and then sufficient water added to produce a slurry. The bottles were capped and then placed in an overhead shaker (set at medium speed for up to 1 hour) so that the seeds were evenly coated with the slurry. The bottles were uncapped and the seeds used in the pre- or post-emergence tests as described in sections 1.2 and 1.3.
(§3) As an alternative seed treatment method, active ingredient of the prospective safeners was weighed and dissolved in a solvent (e.g. acetone) and added to the seeds in the bottles. The solvent type and volume was selected based on prior experience so that it would have no negative impact on seed germination or subsequent plant growth. After shaking for up to 1 hour (overhead shaker) the seeds were spread out on paper in a fume cabinet to allow the remaining solvent to evaporate. The seeds were then used in the pre- or post-emergence tests as described in sections 1.2 and 1.3.
(§4) In tests in which larger quantities of seeds required treatment, the prospective safeners, either as formulated samples in water or as active ingredient dissolved in solvent were applied to seeds using a mini-rotostat apparatus. The seeds were allowed to dry for a short time before being used in the pre- or post-emergence tests as described in sections 1.2 and 1.3.
(§5) The safener treated seeds and untreated comparison seeds were sown into 7 to 13 cm round pots in a sandy loam soil and covered with approximately 0.5 to 1 cm of a 1 to 1 mix of sandy loam soil and sand. Herbicidal substances, as liquid (e.g. Emulsifiable concentrates) or dry (e.g. wettable powder) formulations, were diluted to the required concentrations in deionised water and applied to the soil surface using a track sprayer calibrated to deliver 300 to 800 litres of spray solution per hectare.
(§6) The pots were placed under good growing conditions in a glasshouse and a visual assessment of herbicidal effects made after 3 to 4 weeks after herbicide application. Assessment was on a percentage basis in comparison with untreated control plants (0%=no injury, 100%=complete kill).
Wheat or barley seeds were treated according to example 1.1. […] After 3 to 4 weeks the results were visually scored in comparison with control plants (without seed treatment and herbicide treatment).

[2] = system: ZEAMA = Zea mays (maize), variety Lorenzo; assay: Corn seed treatment with safener, then pre-emergence herbicide H1 (isoxaflutole); visual crop injury; conditions: safener seed treatment 0.1 g a.i./kg seed + Herbicide H1 pre-emergent 100 g a.i./ha
Protocol: as §1, §2
(§7) As an alternative seed treatment method, active ingredient of the prospective safeners was weighed and dissolved in a solvent (e.g. acetone) and added to the seeds in the bottles. […]
(§8) In tests in which larger quantities of seeds required treatment, the prospective safeners, either as formulated samples in water or as active ingredient dissolved in solvent were applied to seeds using a mini-rotostat apparatus. […]
(§9) Corn seeds were treated according to example 1.1. […] After 3 to 4 weeks the results were visually scored in comparison with control plants (without seed treatment and herbicide treatment).

[3] = system: TRZAS, Triticum aestivum (wheat), variety Ralle; assay: Wheat seed treatment with safener, then pre-emergence herbicide H2 (metolachlor); visual crop injury; conditions: for Safener effect in % reduction in crop injury: TRZAS
Protocol: as §1, §2, §3, §4, §5, §6
Wheat or barley seeds were treated according to example 1.1. After sowing the herbicide was applied pre-emergent on the soil surface as described in example 1.2. After 3 to 4 weeks the results were visually scored in comparison with control plants (without seed treatment and herbicide treatment).

corn (variety Dea) = assay: Corn seed treatment with safener, then post-emergence herbicide H3 (diflufenzopyr + dicamba sodium salts); visual crop injury
Protocol: as §1, §2, §7, §8, §9

[4] = safener seed treatment 0.5 g a.i./kg seed + Herbicide H2 pre-emergent 700 g a.i./ha
[5] = safener seed treatment 1 g a.i./kg seed + Herbicide H2 pre-emergent 700 g a.i./ha
[6] = safener seed treatment 2 g a.i./kg seed + Herbicide H2 pre-emergent 700 g a.i./ha

CCOC(=O)C1=NOC(c2ccccc2)(c2ccccc2)C1 [(lb)]
% injury to HORVS [1, 4]: 0% | Safener effect in % reduction in crop injury [1, 4]: 100% | % injury to HORVS [1, 5]: 0% | Safener effect in % reduction in crop injury [1, 5]: 100% | Safener effect in % reduction in crop injury ([2]; ZEAMA): 71% | % injury to ZEAMA ([2]; after 3 to 4 weeks): 10% | % injury to TRZAS [3, 4]: 10% | Safener effect in % reduction in crop injury [3, 4]: 86% | % injury to TRZAS [3, 5]: 20% | Safener effect in % reduction in crop injury [3, 5]: 73% | % injury to TRZAS [3, 6]: 15% | Safener effect in % reduction in crop injury [3, 6]: 79% | % injury to corn (variety Dea) (corn (variety Dea); safener seed treatment 0.01 g a.i./kg seed + Herbicide H3 500 g a.i./ha (head: pre-emergent; text: post-emergent at 2 to 3-leaf stage)): 10% | Safener effect in % reduction in crop injury (corn (variety Dea); safener seed treatment 0.01 g a.i./kg seed + Herbicide H3 500 g a.i./ha, corn variety Dea): 57%
